Measured values taken from patent US9580430B2, “9H-pyrimido[4,5-B]indoles and related analogs as BET bromodomain inhibitors” (THE REGENTS OF THE UNIVERSITY OF MICHIGAN, priority 2014, dated 2017).

What was measured:
MDA-MB-436 = experiment: Cell growth inhibition, MDA-MB-436 breast cancer cells (WST-8); assay type: cell-based; settings: Homo sapiens, MDA-MB-436, 96 h; 4 days; read-out: IC50 (nM) MDA-MB-436 Cell Line (WST assay)
Summary of the method: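 IC50 was computed from WST-8-based cell counting in MDA-MB-436 cells, with absorbance read at 450 nm.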

MOLM-13 = experiment: Cell growth inhibition, MOLM-13 leukemia cells (CellTiter-Glo); assay type: cell-based; settings: Homo sapiens, MOLM-13, 96 h; 4 days; read-out: IC50 (nM) MOLM-13 Cell Line (CellTiter-Glo assay)
Summary of the method: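 MOLM-13 leukemia cells treated with compounds; viability read by CellTiter-Glo luminescence after 10-20 min reagent incubation at room temperature. IC50 derived from luminescent signal.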

recombinant BRD4 BD2 = target: T1, recombinant BRD4 BD2 (Homo sapiens, UniProt O60885); experiment: Competitive fluorescence-polarization (FP) binding assay, BRD4 BD2; settings: competitive FP assay; protein 6 nM, probe […]; read-out: IC50 (nM) BRD4 BD2; further: probe 1.5 nM
T1 construct: for recombinant BRD4 BD1 and BRD4 BD2 proteins
Summary of the method: (§1)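 FP competition with FAM-labelled probe (ZBA248 or BRD-1F) against preincubated protein/probe complex; BD1 at 10 nM and BD2 at 6 nM final, in 100 mM potassium phosphate pH 6.5, 0.01% Triton X-100. 30 min, room temperature. IC50 by nonlinear regression; Ki also derived, using probe Kd from protein saturation.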

recombinant BRD4 BD1 = target: T2, recombinant BRD4 BD1 (Homo sapiens, UniProt O60885); experiment: Competitive fluorescence-polarization (FP) binding assay, BRD4 BD1; settings: competitive FP assay; protein 10 nM, probe […]; read-out: IC50 (nM) BRD4 BD1; further: probe 1.5 nM
T2 construct: for recombinant BRD4 BD1 and BRD4 BD2 proteins
Summary of the method: as §1

| IC50 (MDA-MB-436) [nM] | IC50 (MOLM-13) [nM] | IC50 (recombinant BRD4 BD2) [nM] | IC50 (recombinant BRD4 BD1) [nM] | SMILES |
| --- | --- | --- | --- | --- |
| 380 | 171 | 13 | 76 | COc1cc2c(cc1-c1c(C)noc1C)[nH]c1nc(C)nc(Nc3c(-c4ccccc4)noc3C)c12 [Cpd. No. 98, N-(7-(3,5-dimethylisoxazol-4-yl)-6-methoxy-2-methyl-9H-pyrimido[4,5-b]indol-4-yl)-5-methyl-3-phenylisoxazol-4-amine] |
| 307 | 206 | 87 | 47 | COc1cc2c(cc1-c1c(C)noc1C)[nH]c1nc(C)nc(Nc3cnc4ccccn34)c12 [Cpd. No. 99, 7-(3,5-dimethylisoxazol-4-yl)-N-(imidazo[1,2-a]pyridin-3-yl)-6-methoxy-2-methyl-9H-pyrimido[4,5-b]indol-4-amine] |
| 235 | 147 | 89 | 99 | COc1cc2c(cc1-c1c(C)noc1C)[nH]c1nc(C)nc(Nc3ccc(OC)c4ccccc34)c12 [Cpd. No. 100, 7-(3,5-dimethylisoxazol-4-yl)-6-methoxy-N-(4-methoxynaphthalen-1-yl)-2-methyl-9H-pyrimido[4,5-b]indol-4-amine] |
| 363 | 510 | 17 | 18 | COc1cc2c(cc1-c1c(C)noc1C)[nH]c1nc(C)nc(Nc3c[nH]c4ncccc34)c12 [Cpd. No. 102, 7-(3,5-dimethylisoxazol-4-yl)-6-methoxy-2-methyl-N-(1H-pyrrolo[2,3-b]pyridin-3-yl)-9H-pyrimido[4,5-b]indol-4-amine] |
| 120 | 39 | 38 | 29 | COc1cc2c(cc1-c1c(C)noc1C)[nH]c1nc(C)nc(Nc3csc4ncccc34)c12 [Cpd. No. 103, N-(7-(3,5-dimethylisoxazol-4-yl)-6-methoxy-2-methyl-9H-pyrimido[4,5-b]indol-4-yl)thieno[2,3-b]pyridin-3-amine] |
| 3.4 | 603 | 810 | > 1000 | COc1cc2c(cc1-c1c(C)noc1C)[nH]c1nc(C)nc(Oc3ccnc4ccccc34)c12 [Cpd. No. 104, 4-(6-methoxy-2-methyl-4-(quinolin-4-yloxy)-9H-pyrimido[4,5-b]indol-7-yl)-3,5-dimethylisoxazole] |
| 885 | 371 | 868 | > 1000 | COc1cc2c(cc1-c1c(C)noc1C)[nH]c1nc(C)nc(Oc3cncc(Br)c3)c12 [Cpd. No. 105, 4-(4-(5-bromopyridin-3-yloxy)-6-methoxy-2-methyl-9H-pyrimido[4,5-b]indol-7-yl)-3,5-dimethylisoxazole] |
| 618 | 56 | 619 | 1410 | COc1cc2c(cc1-c1c(C)noc1C)[nH]c1nc(C)nc(Nc3cncc(Cl)c3)c12 [Cpd. No. 106, N-(5-chloropyridin-3-yl)-7-(3,5-dimethylisoxazol-4-yl)-6-methoxy-2-methyl-9H-pyrimido[4,5-b]indol-4-amine] |
| 229 | 8 | 33 | 92 | COc1cc2c(cc1-c1c(C)noc1C)[nH]c1nc(C)nc(Nc3ccc(F)c(Cl)c3)c12 [Cpd. No. 107, N-(3-chloro-4-fluorophenyl)-7-(3,5-dimethylisoxazol-4-yl)-6-methoxy-2-methyl-9H-pyrimido[4,5-b]indol-4-amine] |
| 181 | 19 | 21 | 58 | COc1cc2c(cc1-c1c(C)noc1C)[nH]c1nc(C)nc(Nc3cncc(C)c3)c12 [Cpd. No. 108, 7-(3,5-dimethylisoxazol-4-yl)-6-methoxy-2-methyl-N-(5-methylpyridin-3-yl)-9H-pyrimido[4,5-b]indol-4-amine] |
| 679 | 12 | 253 | 284 | COc1cc2c(cc1-c1c(C)noc1C)[nH]c1nc(C)nc(Nc3cnccc3C)c12 [Cpd. No. 109, 7-(3,5-dimethylisoxazol-4-yl)-6-methoxy-2-methyl-N-(4-methylpyridin-3-yl)-9H-pyrimido[4,5-b]indol-4-amine] |
| 354 | 16 | 33 | 73 | COc1cc2c(cc1-c1c(C)noc1C)[nH]c1nc(C)nc(Nc3cc(C)ccn3)c12 [Cpd. No. 110, 7-(3,5-dimethylisoxazol-4-yl)-6-methoxy-2-methyl-N-(4-methylpyridin-2-yl)-9H-pyrimido[4,5-b]indol-4-amine] |
| 1100 | 7 | 218 | 312 | COc1cc2c(cc1-c1c(C)noc1C)[nH]c1nc(C)nc(Nc3cccc(C)n3)c12 [Cpd. No. 111, 7-(3,5-dimethylisoxazol-4-yl)-6-methoxy-2-methyl-N-(6-methylpyridin-2-yl)-9H-pyrimido[4,5-b]indol-4-amine] |
| 2430 | 15000 | 395 | 460 | COc1cc2c(cc1-c1c(C)noc1C)[nH]c1nc(C)nc(NC3CCCCC3)c12 [Cpd. No. 112, N-cyclohexyl-7-(3,5-dimethylisoxazol-4-yl)-6-methoxy-2-methyl-9H-pyrimido[4,5-b]indol-4-amine] |
| 1100 | 853 | 564 | 582 | COc1cc2c(cc1-c1c(C)noc1C)[nH]c1nc(C)nc(NC3CCCC3)c12 [Cpd. No. 113, N-cyclopentyl-7-(3,5-dimethylisoxazol-4-yl)-6-methoxy-2-methyl-9H-pyrimido[4,5-b]indol-4-amine] |
| 81.1 | 30.7 | 136 | 23.2 | COc1cc2c(cc1-c1c(C)noc1C)[nH]c1nc(C)nc(Nc3cc(C)n(C)n3)c12 [Cpd. No. 115, N-(1,5-Dimethyl-1H-pyrazol-3-yl)-7-(3,5-dimethylisoxazol-4-yl)-6-methoxy-2-methyl-9H-pyrimido[4,5-b]indol-4-amine] |
| 26.3 | 15.4 | 9.6 | 14 | CCn1nc(C)cc1Nc1nc(C)nc2[nH]c3cc(-c4c(C)noc4C)c(OC)cc3c12 [Cpd. No. 116, 7-(3,5-Dimethylisoxazol-4-yl)-N-(1-ethyl-3-methyl-1H-pyrazol-5-yl)-6-methoxy-2-methyl-9H-pyrimido[4,5-b]indol-4-amine] |
| 25 | 17.7 | 3.4 | 4.2 | COc1cc2c(cc1-c1c(C)noc1C)[nH]c1nc(C)nc(Nc3cc(C)nn3C3CCCC3)c12 [Cpd. No. 118, N-(1-Cyclopentyl-3-methyl-1H-pyrazol-5-yl)-7-(3,5-dimethylisoxazol-4-yl)-6-methoxy-2-methyl-9H-pyrimido[4,5-b]indol-4-amine] |
| 26 | 38.8 | 10.6 | 11.4 | COc1cc2c(cc1-c1c(C)noc1C)[nH]c1nc(C)nc(Nc3cc(C)nn3C3CCC3)c12 [Cpd. No. 119, N-(1-Cyclobutyl-3-methyl-1H-pyrazol-5-yl)-7-(3,5-dimethylisoxazol-4-yl)-6-methoxy-2-methyl-9H-pyrimido[4,5-b]indol-4-amine] |
